{"source": "paper PMC3465505", "about": "(Antiviral research, 2012)", "key": {"SV40 TAg ATPase activity": {"biological_target": "SV40 TAg ATPase activity (Simian virus 40, UniProt P03070)", "sequence (P03070 whole entry)": "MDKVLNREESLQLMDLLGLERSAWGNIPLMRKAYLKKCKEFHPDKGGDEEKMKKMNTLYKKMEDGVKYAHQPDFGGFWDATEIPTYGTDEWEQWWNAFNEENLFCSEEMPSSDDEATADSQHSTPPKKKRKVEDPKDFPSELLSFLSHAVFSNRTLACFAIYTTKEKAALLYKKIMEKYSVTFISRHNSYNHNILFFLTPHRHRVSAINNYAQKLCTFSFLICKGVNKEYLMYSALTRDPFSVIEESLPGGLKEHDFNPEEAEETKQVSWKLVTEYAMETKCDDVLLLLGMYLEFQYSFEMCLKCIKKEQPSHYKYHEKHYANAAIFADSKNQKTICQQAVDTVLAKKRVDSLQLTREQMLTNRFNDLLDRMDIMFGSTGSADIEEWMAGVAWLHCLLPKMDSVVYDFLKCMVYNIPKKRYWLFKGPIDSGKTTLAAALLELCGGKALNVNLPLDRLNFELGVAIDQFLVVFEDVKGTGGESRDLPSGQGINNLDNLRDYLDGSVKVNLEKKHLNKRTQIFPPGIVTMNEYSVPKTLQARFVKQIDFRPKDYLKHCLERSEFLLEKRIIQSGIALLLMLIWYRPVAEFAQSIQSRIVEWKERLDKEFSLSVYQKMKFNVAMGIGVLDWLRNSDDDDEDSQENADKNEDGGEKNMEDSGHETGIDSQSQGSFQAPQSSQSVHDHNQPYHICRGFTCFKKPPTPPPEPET", "assay": "biochemical", "assay_type": "biochemical", "conditions": "for inhibition of TAg ATPase activity (SAR screen): 30 μM compound; for potency of TAg ATPase inhibition compared with MAL2-11B: 100 μM compound; for inhibition at 3 µM: read-out: inhibition of TAg ATPase activity; for inhibition at 30 µM: read-out: inhibition of the ATPase activity of TAg"}, "SV40 TAg [1]": {"biological_target": "T1, SV40 TAg (Simian virus 40, UniProt P03070)", "T1 sequence (P03070 whole entry)": "as above", "assay_type": "biochemical"}, "SV40 [2]": {"system": "SV40", "assay": "SV40 DNA replication by qPCR in CV1 cells", "assay_type": "cell-based, Simian Virus 40", "conditions": "48 hpi; for inhibition of DNA replication: 30 μM"}, "SV40 [3]": {"system": "SV40", "assay": "SV40 plaque assay in CV1 cells", "assay_type": "cell-based, Simian Virus 40", "conditions": "2 days; for inhibition of viral replication relative to the DMSO control (plaque assay): 30 μM"}, "BKV": {"system": "BKV", "assay": "BKV DNA replication by qPCR in Vero cells", "assay_type": "cell-based, BK virus", "conditions": "10 μM, 5 d"}, "CV1 cells": {"system": "CV1 cells", "assay": "MTS viability assay", "assay_type": "cell-based, monkey", "conditions": "CV1 cells ~90% confluency, 48 h"}, "SV40 TAg [4]": {"biological_target": "T1, SV40 TAg", "assay": "TAg aggregation under ATPase assay conditions", "conditions": "utilized ATPase assay conditions"}, "[5]": {"conditions": "TAg in the presence of 3 μM compound"}}, "note": "Where two headings read alike, the source gives them in different places. Marks after values point to notes of the source that are not given here."}
{"smiles": "Oc1c(Br)cc(Cl)cc1Cc1cc(Cl)cc(Br)c1O", "note": "[6,6'-methylenebis(2-bromo-4-chlorophenol)]", "values": [{"measurement": "inhibition of TAg ATPase activity (SAR screen)", "setting": "SV40 TAg ATPase activity", "result": "inhibited TAg ATPase activity"}]}
{"smiles": "Oc1c(Br)cc(Cl)cc1Sc1cc(Cl)cc(Br)c1O", "note": "[6,6'-thiobis(2-bromo-4-chlorophenol)]", "values": [{"measurement": "inhibition of TAg ATPase activity (SAR screen)", "setting": "SV40 TAg ATPase activity", "result": "inhibited TAg ATPase activity"}]}
{"smiles": "Nc1ncnc2c1ncn2[C@@H]1O[C@H](COP(=O)(O)OP(=O)(O)O)[C@@H](O)[C@H]1O", "note": "[ADP]", "values": [{"measurement": "Vmax", "setting": "SV40 TAg [1]; TAg in the presence of 150 μM ADP", "result": "2.9 ^‡ pmol/min"}]}
{"smiles": "CC1=C(C(=O)OCc2ccccc2)C(c2ccc(-c3ccccc3)cc2)NC(=O)N1CCCCCC(=O)O", "note": "(stereo not drawn) [MAL2-11B]", "values": [{"measurement": "inhibition of DNA replication in culture", "setting": "SV40 [2]; 100 μM", "result": "~ 60%"}, {"measurement": "reduction of the number of plaques", "setting": "SV40 [3]; 100 μM", "result": "~60", "unit": "%"}]}
{"smiles": "Oc1c(Cl)cc(Cl)cc1Sc1cc(Cl)cc(Cl)c1O", "note": "[bithionol, Bithionol]", "values": [{"measurement": "Vmax", "setting": "SV40 TAg [1]; [5]", "result": "10 ^‡ pmol/min"}, {"measurement": "inhibition of BKV replication", "setting": "BKV", "result": "somewhat less effective"}, {"measurement": "MI50 (metabolic index-50)", "setting": "CV1 cells", "result": 68, "unit": "µM"}, {"measurement": "inhibition of DNA replication", "setting": "SV40 [2]", "result": "~ 100 fold"}, {"measurement": "inhibition of viral replication relative to the DMSO control (plaque assay)", "setting": "SV40 [3]", "result": "~100", "unit": "fold"}, {"measurement": "potency of TAg ATPase inhibition compared with MAL2-11B", "setting": "SV40 TAg ATPase activity", "result": "significantly more potent inhibitors than MAL2-11B"}, {"measurement": "inhibition at 3 µM", "setting": "SV40 TAg ATPase activity", "result": "~50", "unit": "%"}, {"measurement": "inhibition at 30 µM", "setting": "SV40 TAg ATPase activity", "result": "~80", "unit": "%"}]}
{"smiles": "O=C1C(Cl)=C(Cl)C(=O)C(Cl)=C1Cl", "note": "[chloranil]", "values": [{"measurement": "TAg aggregation", "setting": "SV40 TAg [4]", "result": "caused TAg to aggregate"}, {"measurement": "potency of TAg ATPase inhibition compared with MAL2-11B", "setting": "SV40 TAg ATPase activity", "result": "significantly more potent inhibitors than MAL2-11B"}]}
{"smiles": "Oc1c(Cl)cc(Cl)c(Cl)c1Cc1c(O)c(Cl)cc(Cl)c1Cl", "note": "[hexachlorophene]", "values": [{"measurement": "Vmax", "setting": "SV40 TAg [1]; [5]", "result": "6.6 ^‡ pmol/min"}, {"measurement": "inhibition of BKV replication", "setting": "BKV", "result": "maintained its potent inhibition"}, {"measurement": "MI50 95% confidence range based on the sigmoidal fit", "setting": "CV1 cells", "result": "29 to 71", "unit": "µM"}, {"measurement": "MI50 (metabolic index-50)", "setting": "CV1 cells", "result": 55, "unit": "µM"}, {"measurement": "inhibition of DNA replication", "setting": "SV40 [2]", "result": "~ 100 fold"}, {"measurement": "inhibition of viral replication relative to the DMSO control (plaque assay)", "setting": "SV40 [3]", "result": "~100", "unit": "fold"}, {"measurement": "potency of TAg ATPase inhibition compared with MAL2-11B", "setting": "SV40 TAg ATPase activity", "result": "significantly more potent inhibitors than MAL2-11B"}, {"measurement": "inhibition at 3 µM", "setting": "SV40 TAg ATPase activity", "result": "~50", "unit": "%"}, {"measurement": "inhibition at 30 µM", "setting": "SV40 TAg ATPase activity", "result": "~80", "unit": "%"}]}
